Results: paper PMC6696095, “Purification and Characterization of Ornithine Decarboxylase from Aspergillus terreus; Kinetics of Inhibition by Various Inhibitors” (Molecules, 2019)
“And” between values parts separate entries of the source, which are not always exact repeats. Equal entries are not always repeated. Where two headings read alike, the source gives them in different places. Values belong to the molecule of their own block, whether it stands above or below them.

Tests used:
A. terreus ODC [1] = target: T1, A. terreus ODC (Aspergillus terreus, UniProt A0ACN5CWH9); test: Effect of inhibitors on activity of purified A. terreus ODC (residual activity, standard TNBS assay); format: biochemical; details: for activity at 5 µg/mL / activity at 40 µg/mL / activity at 200 µg/mL / activity at 400 µg/mL: read-out: Relative Activity (%); for Relative Activity (%): enzyme preincubated 2 h, then L-ornithine, residual ODC activity; for IC50: 2 h preincubation
Source text: The amino acid identity of the active sites implicated in the catalysis of A. terreus ODC has been scrutinized by the response to suicide inhibitors, namely propargylgycine (PPG), guanidine thiocyanate, hydroxylamine, iodoacetamide, DTNB, MBTH and curcumin. […] Consistently, curcumin has been extensively reported a strong inhibitor to the activity of tumor cells ODC, modulating the cellular polyamine metabolism. Elevated polyamine synthesis was recognized as profound compounds for survival and rapid proliferation of tumor cells, thus, targeting the ODC, rate limiting enzyme of polyamine synthesis, has been considered as powerful chemopreventive therapy for tumor cells. […] The enzyme irreversible inactivation by carbonyl reagents such as PPG, ensures the PLP dependence of these enzymes.
(§1) The activity of ODC was determined based on the amount of released putrescine using 2,4,6-tri-nitrobenzene sulfonic acid (TNBS) reagent. […] The reaction was stopped by 10% TCA then neutralized by adding adequate amount of 2N NaOH. 1-Pentanol (2 mL) was added was added to the reaction mixture which was subsequently vortexed for 1 min and centrifuged at 5000 rpm for 5 min. The upper layer was transferred into a new tube, combined with an equal volume of 0.1 M sodium borate (pH 8.0). After vigorously mixing, 500 µL of TNBS (10 mM) reagent was added, subjected to 1 min vortex before adding 2 mL DMSO, and centrifuging at 6000 rpm for 5 min and left to separate into two layers. The upper layer containing TNP-putrescine-TNP was collected by micropipette and the absorbance at λ = 420 nm will reveal putrescine concentration based on a parallel measurement of authentic putrescine at the same conditions. The enzyme protein concentration was measured by Folinʹs reagent, comparing to a known concentration of bovine serum albumin.
Active site prediction using amino acids analogues has been recognized as one of the mechanisms for interrogation of enzymatic identity. The influence of various inhibitors namely 5,5′-dithiobis-2-nitrobenzoic acid, 3-methyl-2-benzothiazolinone-hydrazone, guanidine thiocyanate, iodoacetamide, hydroxylamine, propargylglycine and curcumin on the activity of purified ODC was estimated. The enzyme was incubated with different inhibitor concentrations (5, 40, 200, 400 µg/mL) for 2 h at 30 °C, then amended with the substrate, and the residual activity of the enzyme were determined by the standard assay. The inhibitory kinetic parameters were measured according to El-Sayed et al.

A. terreus ODC [2] = target: T1, A. terreus ODC; test: Substrate specificity of purified ODC, Nessler's assay (ammonia); format: biochemical; details: for Nessler's Assay Activity: amino acid as substrate; for Nessler's Assay Relative Activity: normalized to L-ornithine as standard substrate
Description: (§2) The specificity of purified A. terreus ODC towards various amino acids as substrates has been evaluated based on the putative enzymatic byproducts such as ammonia, citrulline and putrescine (see Materials and Methods). […] The putative deaminating, deiminating and decarboxylating activity of ODC for each substrate was assessed (Table 3).
(§3) The putative enzymatic byproducts such as ammonia, citrulline and putrescine were determined by Nessler’s reagent, diacetylmonoxime reagent and TNBS [42], respectively, under standard conditions. The kinetic parameters of A. terreus ODC; Michalis-Menten constant (Km), maximum velocity (Vmax), and turnover number (kcat) and catalytic efficiency towards the most hydrolysable amino acids were calculated.

A. terreus ODC [3] = target: T1, A. terreus ODC; test: Substrate specificity of purified ODC, diacetyl monoxime assay (citrulline / imino groups); format: biochemical; details: for Diacetyl Monoxime Assay Activity: amino acid as substrate
Description: as §2, §3

A. terreus ODC [4] = target: T1, A. terreus ODC; test: Substrate specificity of purified ODC, TNBS assay (putrescine); format: biochemical; details: released putrescine; for TNBS Assay Activity: amino acid as substrate; for TNBS Assay Relative Activity: normalized to L-ornithine
Description: as §2, §1, §3

A. terreus ODC [5] = target: T1, A. terreus ODC; test: Kinetic parameters of A. terreus ODC for substrates; details: substrate of A. terreus ODC
Description: as §2, §3

A. terreus ODC [6] = target: T1, A. terreus ODC; format: biochemical; details: Nessler's, diacetylmonoxime and TNBS assays
Description: as §2, §3

N=C(N)NCCC[C@H](N)C(=O)O = test: purified protein, by the assay type; details: other: substrate of A. terreus ODC
Description: (§4) The putative enzymatic byproducts such as ammonia, citrulline and putrescine were determined by Nessler’s reagent [66], diacetylmonoxime reagent [36] and TNBS [42], respectively, under standard conditions. The kinetic parameters of A. terreus ODC; Michalis-Menten constant (Km), maximum velocity (Vmax), and turnover number (kcat) and catalytic efficiency towards the most hydrolysable amino acids were calculated.
NCCCC[C@H](N)C(=O)O = test: purified protein, by the assay type; details: other: substrate of A. terreus ODC
Description: as §4

activity at 5 µg/mL (A. terreus ODC [1]): 41% | activity at 40 µg/mL (A. terreus ODC [1]): 29% | activity at 200 µg/mL (A. terreus ODC [1]): 12% | activity at 400 µg/mL (A. terreus ODC [1]): 0%
Molecule: Cn1c(=NN)sc2ccccc21 [3-Methyl-2-benzo-thiazolinone hydrazone, 3-methyl-2-benzothiazolinone-hydrazone]

Relative Activity (%) (A. terreus ODC [1]; inhibitor 5 µg/mL): 39% | Relative Activity (%) (A. terreus ODC [1]; inhibitor 40 µg/mL): 27% | Relative Activity (%) (A. terreus ODC [1]; inhibitor 200 µg/mL): 14% | Relative Activity (%) (A. terreus ODC [1]; inhibitor 400 µg/mL): 5.8%
Molecule: O=C(O)c1cc(SSc2ccc([N+](=O)[O-])c(C(=O)O)c2)ccc1[N+](=O)[O-] [5-5′-Dithiobis-(2-nitro-benzoic acid), 5,5′-dithiobis-2-nitrobenzoic acid]

IC50 (A. terreus ODC [1]; IC50, purified A. terreus ODC): ~109 nM and 109 nM | activity at 5 µg/mL (A. terreus ODC [1]): 11% | activity at 40 µg/mL (A. terreus ODC [1]): 0% | activity at 200 µg/mL (A. terreus ODC [1]): 0% | activity at 400 µg/mL (A. terreus ODC [1]): 0%
Molecule: COc1cc(/C=C/C(=O)CC(=O)/C=C/c2ccc(O)c(OC)c2)ccc1O [Curcumin, diferuloylmethane]

Relative Activity (%) (A. terreus ODC [1]; inhibitor 5 µg/mL): 8% | Relative Activity (%) (A. terreus ODC [1]; inhibitor 40 µg/mL): 0.1% | Relative Activity (%) (A. terreus ODC [1]; inhibitor 200 µg/mL): 0% | Relative Activity (%) (A. terreus ODC [1]; inhibitor 400 µg/mL): 0% | IC50 (A. terreus ODC [1]; purified A. terreus ODC): 0.02 µg/mL
Molecule: NCCCC(N)(C(=O)O)C(F)F (stereo not drawn) [DFMO, Difluoromethylornithine]

Molecule: N#CS.N=C(N)N [Guanidine thiocyanate, guanidine thiocyanate]
Relative Activity (%) (A. terreus ODC [1]; inhibitor 5 µg/mL): 90% | Relative Activity (%) (A. terreus ODC [1]; inhibitor 40 µg/mL): 60% | Relative Activity (%) (A. terreus ODC [1]; inhibitor 200 µg/mL): 30%

Relative Activity (%) (A. terreus ODC [1]; inhibitor 5 µg/mL): 45% | Relative Activity (%) (A. terreus ODC [1]; inhibitor 40 µg/mL): 13% | Relative Activity (%) (A. terreus ODC [1]; inhibitor 200 µg/mL): 0% | Relative Activity (%) (A. terreus ODC [1]; inhibitor 400 µg/mL): 0%
Molecule: NO [Hydroxylamine, hydroxylamine]

Molecule: NC(=O)CI [Iodoacetamide, iodoacetamide]
Relative Activity (%) (A. terreus ODC [1]; inhibitor 5 µg/mL): 37% | Relative Activity (%) (A. terreus ODC [1]; inhibitor 40 µg/mL): 19% | Relative Activity (%) (A. terreus ODC [1]; inhibitor 200 µg/mL): 10% | Relative Activity (%) (A. terreus ODC [1]; inhibitor 400 µg/mL): 0%

Molecule: N=C(N)NCCC[C@H](N)C(=O)O [L-Arginine]
Nessler's Assay Activity (A. terreus ODC [2]): 0.35 µmol/mg/min | Nessler's Assay Relative Activity (A. terreus ODC [2]): 19% | Diacetyl Monoxime Assay Relative Activity (A. terreus ODC [3]): 194% | Diacetyl Monoxime Assay Activity (A. terreus ODC [3]; deiminating activity): 0.0068 µmol/mg/min | TNBS Assay Activity (A. terreus ODC [4]): 0.34 µmol/mg/min | TNBS Assay Relative Activity (A. terreus ODC [4]): 16.2%

Molecule: NCCCC[C@H](N)C(=O)O [L-Lysine]
Nessler's Assay Activity (A. terreus ODC [2]): 0 µmol/mg/min | Nessler's Assay Relative Activity (A. terreus ODC [2]): 0% | Diacetyl Monoxime Assay Activity (A. terreus ODC [3]; deiminating activity): 0.0045 µmol/mg/min | Diacetyl Monoxime Assay Relative Activity (A. terreus ODC [3]; deiminating activity, normalized to L-ornithine): 128% | TNBS Assay Activity (A. terreus ODC [4]): 0.44 µmol/mg/min | TNBS Assay Relative Activity (A. terreus ODC [4]): 20.9%

Molecule: NCCC[C@H](N)C(=O)O [L-Ornithine]
Nessler's Assay Activity (A. terreus ODC [2]): 1.87 µmol/mg/min | Diacetyl Monoxime Assay Activity (A. terreus ODC [3]; deiminating activity): 0.0035 µmol/mg/min | Km (A. terreus ODC [5]): 950 µM | Vmax (A. terreus ODC [5]): 4.8 µmol/mg/min | Km (A. terreus ODC [5]; listed as L-ornithine): 900 µM | TNBS Assay Activity (A. terreus ODC [4]): 2.1 µmol/mg/min

Molecule: C[C@H](N)C(=O)O [L-alanine]
affinity of purified ODC towards the amino acid as substrate (A. terreus ODC [6]): no detectable affinity

Molecule: NC(=O)C[C@H](N)C(=O)O [L-asparagine]
affinity of purified ODC towards the amino acid as substrate (A. terreus ODC [6]): no detectable affinity

Molecule: N[C@@H](CS)C(=O)O [L-cysteine]
affinity of purified ODC towards the amino acid as substrate (A. terreus ODC [6]): no detectable affinity

Molecule: NC(=O)CC[C@H](N)C(=O)O [L-glutamine]
affinity of purified ODC towards the amino acid as substrate (A. terreus ODC [6]): no detectable affinity

Molecule: NCC(=O)O [L-glycine]
affinity of purified ODC towards the amino acid as substrate (A. terreus ODC [6]): no detectable affinity

Molecule: CSCC[C@H](N)C(=O)O [L-methionine]
affinity of purified ODC towards the amino acid as substrate (A. terreus ODC [6]): no detectable affinity

Molecule: N[C@@H](Cc1c[nH]c2ccccc12)C(=O)O [L-tryptophan]
affinity of purified ODC towards the amino acid as substrate (A. terreus ODC [6]): no detectable affinity

Molecule: N[C@@H](Cc1ccc(O)cc1)C(=O)O [L-tyrosine]
affinity of purified ODC towards the amino acid as substrate (A. terreus ODC [6]): no detectable affinity

Molecule: CC(C)[C@H](N)C(=O)O [L-valine]
affinity of purified ODC towards the amino acid as substrate (A. terreus ODC [6]): no detectable affinity

Molecule: CC(=O)N[C@@H]1[C@@H](O)[C@H](O)[C@@H](CO)O[C@H]1O [N-acetylglucosamine]
affinity of purified ODC towards the amino acid as substrate (A. terreus ODC [6]): no detectable affinity

Relative Activity (%) (A. terreus ODC [1]; inhibitor 5 µg/mL): 89% | Relative Activity (%) (A. terreus ODC [1]; inhibitor 40 µg/mL): 30% | Relative Activity (%) (A. terreus ODC [1]; inhibitor 200 µg/mL): 17% | Relative Activity (%) (A. terreus ODC [1]; inhibitor 400 µg/mL): 6% | IC50 (A. terreus ODC [1]; purified A. terreus ODC): 20.9 µg/mL
Molecule: C#CCC(N)C(=O)O (stereo not drawn) [Propargylgycine, propargylglycine]

Molecule: A. terreus ODC (Aspergillus terreus NIH2624)
Km (N=C(N)NCCC[C@H](N)C(=O)O): 1.4 mM | kcat/Km (N=C(N)NCCC[C@H](N)C(=O)O): 0.0246 M⁻¹ s⁻¹ | Km (NCCCC[C@H](N)C(=O)O): 1.34 mM | kcat/Km (NCCCC[C@H](N)C(=O)O): 0.0283 M⁻¹ s⁻¹
